Data reported in patent US6743806B2, “Active oxygen scavenger” (Otsuka Pharmaceutical Company, Limited, priority 2002, dated 2004).

Legend:
[1] = Hydroxyl radical scavenging efficacy (Fenton system, DMPO spin trap, EPR)
Experimental: Hydroxyl radical scavenging efficacy of cilostazol was determined in air-saturated phosphate buffer (10 mM) at room temperature. The reaction was initiated by addition of a small aliquot (5 μL) of Fe^2+ solution (10 mM FeSO4 in 10 mM HCl) to a buffer containing cilostazol, H2O2 (0.12 mM) and 5,5-dimethyl-1-pyrroline-N-oxide (DMPO) (1 mM). The sample was transferred quickly to flat quartz electron paramagnetic resonance (EPR) cell, and measurements were started immediately.
The EPR spectra of the spin-adduct of DMPO with the hydroxyl radical: DMPO/.OH was observed when DMPO reacted with hydroxyl radical generated by the Fenton system. The EPR spectra (.OH) are shown in the accompanying FIG. 1. Scavenging of hydroxyl radicals was confirmed by using catalase (0.510 U/ml) (data not shown).

[2] = Peroxyl radical absorbing capacity (PRAC) assay; conditions: 1 PRAC unit is the value of 1 μM of trolox, β-phycoerythrin fluorescence, 37° C.
Experimental: According to the method described by Cao et al. (Cao G, Alessio HM, Cutler RG (1993), Oxygen-radical absorbance capacity assay for antioxidants, Free Radic. Biol. Med 14: 303-311), the assay is based on production of peroxyl radicals by 2,2′-azobis(2-amidinopropane) hydrochloride (3 mM), a peroxyl radical generator, with subsequent oxidation of the reporter protein, β-phycoerythrin (16.7 nM) in 24 well plates. Into each sample well, either 20 μl of phosphate buffer or 20 μl of each concentration of cilostazol was included. After adding 2,2′-azobis(2-amidinopropane) hydrochloride, the reaction mixture was incubated at 37° C. Loss of fluorescence was measured every 5 minutes at the emission of 590 nm and excitation of 485 nm using Fluorescence Plate Reader (Bio-Tek Instruments, Inc., Winooski, USA). The PRAC value of the compound is reflected in the increase of area under curve of fluorescence versus time. Trolox was used as a reference for PRAC assay. The fluorescence just prior to addition of the 2,2′-azobis(2-amidinopropane) hydrochloride was estimated as the 100% value for that sample. The PRAC values were calculated by the following equation: [formula]
where 1 PRAC unit is the value of 1 μM of trolox.
The time-dependent decrease of β-phycoerythrin fluorescence in the absence (blank) and the presence of different concentrations of cilostazol is shown, in the accompanying FIG. 2. […]

In the case of `O=C1CCc2cc(OCCCCc3nnnn3C3CCCCC3)ccc2N1` [cilostazol, 6-[4-(1-cyclohexyl-1H-tetrazol-5-yl)butoxy]-3,4-dihydrocarbostyril], the “DMPO/.OH adduct EPR signals” value ([1]; 10^−5 M of cilostazol) is reported as “almost ameliorated”, the IC50 ([1]; DMPO/.OH adduct formation, Fenton system, phosphate buffer 10 mM, room temperature, EPR, read-out: concentration required for inhibiting hydroxyl radical formation (IC50)) is reported as 2.58 ± 0.07 µM and the PRAC value ([2]; 10^−4 M cilostazol) is reported as 1.938 unit. It also gave a PRAC value ([2]; 10^−6 M cilostazol) of 1.325 unit.
